In patent publication US20240150356A1, “Pyrimidine amide compounds and use thereof” (ALPHALA CO., LTD., priority 2019, published 2024) one finds LC50 and CC50 data, which are given here for 21 compounds.

Type in all cases: cell-based
The test system of assay [1] is Hep3B cells (hepatocellular carcinoma cell line). In words: In vitro MTS cell viability assay (NCI-60 methodology), Hep3B. The conditions noted are these: Homo sapiens, 48 h, 2 days drug incubation, 50% reduction vs time zero, read-out: Hep3B LC50. Put shortly: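 Following NCI-60 method, MTS viability of Hep3B measured 24 h after plating (time zero) and after a further 2-day exposure to five concentrations (2-fold series). LC50 defined where [(Ti−Tz)/Tz]×100 = −50.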
(Tetrazolium assays rely on reduction of a dye to a coloured formazan, in cell work by metabolically active cells.)

Assay [2] deals with NCI-H460 (human lung cancer cell line). In words: In vitro MTS cell viability assay (NCI-60 methodology), NCI-H460. The conditions noted are these: NCI-H460 cells, read-out: NCI-H460 LC50. How it is done: (§1) The cell viability measurement is based on the NCI-60 screening methodology (Nat. Rev. Cancer 6, 813-823, 2006). Briefly, cells are inoculated into 96-well plates at the optimal plating density. After 24 h, one of the two plates for Hep3B cell line is processed to determine a time zero cell viability (Tz) by MTS assay (Promega). Compounds are added over a 2-fold serial dilution to provide a total five drug concentrations plus DMSO control. Plates are incubated for a further 2 days, then measured cell viability by MTS assay [control growth (C) and test growth in the presence of drug at the five concentration levels (Ti)]. The LC50 is calculated from [(Ti−Tz)/Tz]×100=−50, which is the drug concentration resulting in a 50% reduction at the end of the drug treatment as compared to that at the beginning.
(§2) The compounds prepared in Tables 1-10 were tested in three in vitro assays, and the results are shown in Tables 1-10 for Hep3B and Table 11 for SW480 and NCI-H460 shown below. Herein, Hep3B refers to hepatocellular carcinoma cell line, SW480 refers to colon adenocarcinoma cell line, and NCI-H460 refers to human lung cancer cell line.
(§3) Shown in Tables 11 are in vitro activities of exemplary compounds of formula (I).

For assay [3], the system named is SW480 (colon adenocarcinoma cell line). The experiment in a line: In vitro MTS cell viability assay (NCI-60 methodology), SW480. The conditions noted are these: Homo sapiens, SW480 cells, read-out: SW480 LC50. How it is done: as §1, §2, §3

Read-outs that look alike come from different tables or passages of the source.

The term LC50 denotes the concentration that kills 50% of the test population. On to `O=C(Nc1nc(-c2ccc(OC(F)(F)F)cc2)nc2c1cnn2-c1ccccc1)c1ccc([N+](=O)[O-])s1` [Compound 5-40, 5-nitro-N-(1-phenyl-6-(4-(trifluoromethoxy)phenyl)-1H-pyrazolo[3,4-d]pyrimidin-4-yl)thiophene-2-carboxamide], for which, in assay [1] (Table 5, MTS), the LC50 turned out to be 430 nM. In addition, the values for the CC50 in assay [2] and in assay [3] were 930 nM and 5420 nM, respectively.
Take `COC(=O)[C@@H]1CCCN1c1nc(NC(=O)c2ccc([N+](=O)[O-])s2)c2cnn(-c3ccc(C(C)(C)C)cc3)c2n1` [Compound 6-69, methyl(1-(4-(tert-butyl)phenyl)4-(5-nitrothiophene-2-carboxamido)-1H-pyrazolo[3,4-d]pyrimidin-6-yl)-L-prolinate]: in assay [1] (Table 6, MTS), the LC50 was found to be 440 nM. The CC50 turned out to be 2760 nM in assay [2] and 890 nM in assay [3].
In the same order, the values of `CCOCCOCCOc1ccc(-c2nc(NC(=O)c3ccc([N+](=O)[O-])s3)c3cnn(-c4ccc(Cl)cc4)c3n2)cn1` [Compound 6-53, N-(1-(4-chlorophenyl)-6-(6-(2-(2-ethoxyethoxy)ethoxy)pyridin-3-yl)-1H-pyrazolo[3,4-d]pyrimidin-4-yl)-5-nitrothiophene-2-carboxamide] are 130 nM, 1090 nM and 1040 nM.
Turning to `O=C(Nc1nc(-c2ccc(F)c(F)c2)nc2c1cnn2C1CCCCC1)c1ccc([N+](=O)[O-])s1` [Compound 10-40, N-(1-cyclohexyl-6-(3,4-difluorophenyl)-1H-pyrazolo[3,4-d]pyrimidin-4-yl)-5-nitrothiophene-2-carboxamide], the 50% lethal concentration (LC50) in assay [1] (Table 10, MTS) amounted to 320 nM. Besides, the CC50 worked out at 1160 nM in assay [2] and 1040 nM in assay [3].
For the compound `O=C(Nc1nc(-c2ccc(F)nc2)nc2c1cnn2-c1ccc(F)cc1)c1ccc([N+](=O)[O-])s1` [Compound 6-116, N-(1-(4-fluorophenyl)-6-(6-fluoropyridin-3-yl)-1H-pyrazolo[3,4-d]pyrimidin-4-yl)-5-nitrothiophene-2-carboxamide], the 50% lethal concentration (LC50) in assay [1] (Table 6, MTS) was 90 nM. In addition, the CC50 in assay [2] was found to be 500 nM; in assay [3], 550 nM.
As to `O=C(Nc1nc(-c2ccc(Cl)c(F)c2)nc2c1cnn2-c1ccc(F)cc1)c1ccc([N+](=O)[O-])s1` [Compound 6-127], in assay [1] (Table 6, MTS), the LC50 was 150 nM. The results for the CC50 in assay [2] and in assay [3] were 450 nM and 1060 nM, respectively.
Consider `O=C(Nc1nc(-c2cccc(Cl)c2)nc2c1cnn2-c1ccccc1)c1ccc([N+](=O)[O-])s1` [Compound 5-29, N-(6-(3-chlorophenyl)-1-phenyl-1H-pyrazolo[3,4-d]pyrimidin-4-yl)-5-nitrothiophene-2-carboxamide], for which the LC50 in assay [1] (Table 5, MTS) amounted to 210 nM. For the same compound, the figures for the CC50 in assay [2] and in assay [3] were 950 nM and 660 nM, respectively.
Turning to `O=C(Nc1nc(N2CCC[C@H]2COc2ccccc2)nc2c1cnn2-c1ccc(F)cc1)c1ccc([N+](=O)[O-])s1` [Compound 6-106, (S)—N-(1-(4-fluorophenyl)-6-(2-(phenoxymethyl)pyrrolidin-1-yl)-1H-pyrazolo[3,4-d]pyrimidin-4-yl)-5-nitrothiophene-2-carboxamide], in assay [1] (Table 6, MTS), the 50% lethal concentration (LC50) turned out to be 430 nM. The CC50 in assay [2] was 1650 nM; in assay [3], 500 nM.
On the same counts, the results for `CCCOc1ccc(-c2nc(NC(=O)c3ccc([N+](=O)[O-])s3)c3cnn(-c4ccc(F)cc4)c3n2)cn1` [Compound 6-133, N-(1-(4-fluorophenyl)-6-(6-propoxypyridin-3-yl)-1H-pyrazolo[3,4-d]pyrimidin-4-yl)-5-nitrothiophene-2-carboxamide] are 160 nM, 490 nM and 430 nM.
In the case of `O=C(Nc1nc(-c2ccc(C(F)(F)F)cc2)nc2c1cnn2-c1ccccc1)c1ccc([N+](=O)[O-])s1` [Compound 5-39, 5-nitro-N-(1-phenyl-6-(4-(trifluoromethyl)phenyl)-1H-pyrazolo[3,4-d]pyrimidin-4-yl)thiophene-2-carboxamide], the 50% lethal concentration (LC50) in assay [1] (Table 5, MTS) worked out at 320 nM. Besides, the CC50 in assay [2] is 1250 nM; in assay [3], more than 10000 nM.
`Cc1ccc(-c2nc(NC(=O)c3ccc([N+](=O)[O-])s3)c3cnn(-c4ccc(F)cc4)c3n2)cn1` [Compound 6-120, N-(1-(4-fluorophenyl)-6-(6-methylpyridin-3-yl)-1H-pyrazolo[3,4-d]pyrimidin-4-yl)-5-nitrothiophene-2-carboxamide]: the median lethal concentration (LC50) in assay [1] (Table 6, MTS) is 250 nM. In addition, the CC50 in assay [2] was 1340 nM; in assay [3] it was 510 nM.
On to `COc1ccc(-c2nc(NC(=O)c3ccc([N+](=O)[O-])s3)c3cnn(-c4ccc(F)cc4)c3n2)cn1` [Compound 6-121, N-(1-(4-fluorophenyl)-6-(6-methoxypyridin-3-yl)-1H-pyrazolo[3,4-d]pyrimidin-4-yl)-5-nitrothiophene-2-carboxamide], for which the median lethal concentration (LC50) in assay [1] (Table 6, MTS) was found to be 70 nM. Also, the CC50 is 480 nM in assay [2] and 630 nM in assay [3].
For `COC(=O)c1ccc(-c2nc(NC(=O)c3ccc([N+](=O)[O-])s3)c3cnn(C4CCCCC4)c3n2)cc1` [Compound 10-32, methyl 4-(1-cyclohexyl-4-(5-nitrothiophene-2-carboxamido)-1H-pyrazolo[3,4-d]pyrmidin-6-yl)benzoate], the LC50 in assay [1] (Table 10, MTS) amounted to 400 nM. Also, the values for the CC50 in assay [2] and in assay [3] were 1720 nM and 1210 nM, respectively.
Regarding `N#Cc1ccc(-c2nc(NC(=O)c3ccc([N+](=O)[O-])s3)c3cnn(-c4ccccc4)c3n2)cn1` [Compound 5-33, N-(6-(6-cyanopyridin-3-yl)-1-phenyl-1H-pyrazolo[3,4-d]pyrimidin-4-yl)-5-nitrothiophene-2-carboxamide], in assay [1] (Table 5, MTS), the LC50 is 300 nM. For the same compound, the CC50 in assay [2] worked out at 1800 nM; in assay [3] it was 600 nM.
As to `O=C(Nc1nc(-c2ccc(F)nc2)nc2c1cnn2-c1ccccc1)c1ccc([N+](=O)[O-])s1` [Compound 5-28, N-(6-(6-fluoropyridin-3-yl)-1-phenyl-1H-pyrazolo[3,4-d]pyrimidin-4-yl)-5-nitrothiophene-2-carboxamide], in assay [1] (Table 5, MTS), the LC50 came out at 130 nM. For the same compound, the figures for the CC50 in assay [2] and in assay [3] were 280 nM and 590 nM, respectively.
Turning to `O=C(Nc1nc(N2CCC(F)(F)C2)nc2c1cnn2-c1ccc(OC(F)(F)F)cc1)c1ccc([N+](=O)[O-])s1` [Compound 6-85, N-(6-(3,3-difluoropyrrolidin-1-yl)-1-(4-(trifluoromethoxy)phenyl)-1H-pyrazolo[3,4-d]pyrimidin-4-yl)-5-nitrothiophene-2-carboxamide], the 50% lethal concentration (LC50) in assay [1] (Table 6, MTS) stood at 200 nM. For the same compound, the CC50 in assay [2] is 560 nM; in assay [3], 680 nM.
Turning to `O=C(Nc1nc(-c2cccnc2)nc2c1cnn2-c1ccc(F)cc1)c1ccc([N+](=O)[O-])s1` [Compound 6-111, N-(1-(4-fluorophenyl)-6-(pyridin-3-yl)-1H-pyrazolo[3,4-d]pyrimidin-4-yl)-5-nitrothiophene-2-carboxamide], the LC50 in assay [1] (Table 6, MTS) was 90 nM. In addition, the CC50 in assay [2] was 1870 nM; in assay [3], more than 4000 nM.
For `O=C(Nc1nc(-c2ccc(Cl)cc2)nc2c1cnn2-c1ccccc1)c1ccc([N+](=O)[O-])s1` [Compound 5-30, N-(6-(4-chlorophenyl)-1-phenyl-1H-pyrazolo[3,4-d]pyrimidin-4-yl)-5-nitrothiophene-2-carboxamide], the median lethal concentration (LC50) in assay [1] (Table 5, MTS) was 350 nM. The results for the CC50 in assay [2] and in assay [3] were 540 nM and 2690 nM, respectively.
Consider `CCOc1ccc(-c2nc(NC(=O)c3ccc([N+](=O)[O-])s3)c3cnn(C4CCCCC4)c3n2)cn1` [Compound 10-23, N-(1-cyclohexyl-6-(6-ethoxypyridin-3-yl)-1H-pyrazolo[3,4-d]pyrimidin-4-yl)-5-nitrothiophene-2-carboxamide], for which the 50% lethal concentration (LC50) in assay [1] (Table 10, MTS) stood at 570 nM. The CC50 in assay [2] is 3010 nM; in assay [3] it was 1660 nM.
For the compound `COC(=O)c1ccc(-c2nc(NC(=O)c3ccc([N+](=O)[O-])s3)c3cnn(C4CCN(C(=O)OC(C)(C)C)CC4)c3n2)cc1` [Compound 9-3, tert-butyl 4-(6-(4-(methoxycarbonyl)phenyl)-4-(5-nitrothiophene-2-carboxamido)-1H-pyrazolo[3,4-d]pyrmidin-1-yl)piperidine-1-carboxylate], the 50% lethal concentration (LC50) in assay [1] (Table 9, MTS) is 420 nM. Moreover, the CC50 was determined as 1220 nM in assay [2] and 2720 nM in assay [3].
Consider `O=C(Nc1nc(-c2ccccc2)nc2c1cnn2-c1ccc(F)cc1)c1ccc([N+](=O)[O-])s1` [Compound 6-110, N-(1-(4-fluorophenyl)-6-phenyl-1H-pyrazolo[3,4-d]pyrimidin-4-yl)-5-nitrothiophene-2-carboxamide], for which the LC50 in assay [1] (Table 6, MTS) was 230 nM. The CC50 in assay [2] stood at 1410 nM; in assay [3] it was 1250 nM.
